The values that follow come from patent US9931335B2, “Desethylhydroxychloroquine for the treatment of diseases associated with inflammation” (The Board of Trustees of the Leland Stanford Junior …, priority 2013, dated 2018).

In series [1] the test system is inflammatory cytokines in mouse OA synovium. The experiment in a line: Multiplex cytokine assay of OA synovial tissue from treated DMM mice. The series is classed as in vivo. To be noted: for levels of inflammatory cytokines in OA synovium vs vehicle control: heat map, multiplex bead assay. The text has this:
From a parallel experiment to the mouse OA experiment presented in Example 12 and FIG. 19, following in vivo dosing and at the time of termination OA synovial tissue was microdissected, homogenized to form a lysate, centrifuged, and supernatants assayed for levels of inflammatory cytokines using a multiplex bead-based cytokine assay (BioRad Laboratories, Hercules, Calif.).

Series [2] concerns TNF production by human peripheral blood mononuclear cells (PBMCs). Kind of series: LPS-stimulated TNF production by human PBMCs (ELISA). The format is cell-based. To be noted: LPS 10 μg/ml, 10, 25 and 50 μM compound, 14 hours; vs LPS alone. How it is done: DHCQ reduced the production of the pro-inflammatory cytokine tumor necrosis factor (TNF) by human peripheral blood mononuclear cells (PBMCs) in response to pro-inflammatory lipopolysaccharide (LPS) stimulation (FIG. 10). Human PBMCs were isolated using Ficoll, 200,000 PBMCs were added to each well of a 96-well plate, and stimulated with LPS 10 μg/ml in the presence of a range of concentrations from 0 to 50 μM DHCQ, or 0 to 50 μM HCQ, for 14 hours, following which culture supernatants were collected and TNF measured by ELISA. Assays were run in triplicate.
Isolation of human PBMCs and monocytes. The Ficoll-Paque™ Plus (Cat; 17-1440-03GE Healthcare) was used to isolate human peripheral blood mononuclear cells (PBMCs) from blood collected from healthy donors. For cell culture, the isolated PBMCs were resuspended in culture medium (RPM11640) containing 10% FCS and antibiotics (penicillin 100 IU/mL and streptomycin 100 μg/mL). Monocyte Isolation Kit II (Cat; 130-091-153, Miltenyi Biotec) was used to isolate monocytes from the suspension of human PBMCs.
Stimulation assays. […]
Readout. […] For each assay, a parallel well treated identically was prepared and level of LDH measured to assure no evidence of cell death was induced by drug treatment.
Background: An ELISA detects its analyte on a solid surface through an enzyme-linked reagent.

Series [3] relates to ganglion cell layer (GCL) of the retina. The experiment in a line: Retinal histology of mice dosed for 3 months. The series is classed as in vivo, mouse. To be noted: for number of cells (nuclei) in the GCL vs vehicle / nuclear shrinkage in the ganglion cell layer (GCL): 100 mg/kg/day, 3 months; for nuclear shrinkage in the ganglion cell layer (GCL): H&E. The text has this: At the time of termination, the eyes from each treatment group were carefully microdissected to ensure the retina remained intact, the eye was fixed in formalin, and the fixed eye sectioned to visualize the retina. […] Representative images of H&E stained retinal sections are presented from each treatment group in FIG. 17.
Using the histologic and quantitative pathology methodology adapted from Shichiri, et al (Shichiri, et al, JBC. 2012, 287(4):2926-34. PMID 22147702), the H&E stained retinal sections were evaluated for number of nuclei in the ganglion cell layer (GCL) (FIG. 18). The graph presents quantitation of the number of nuclei in the GCL of the retina from the indicated treatment groups. The number of cells in the GCL of the retina for each treatment group was compared with the number of cells in vehicle-treated control by two-tailed T test.

Series [4] is described as follows: LC/MS tissue levels of HCQ and DHCQ in plasma, retina and synovium of dosed mice. The series is classed as in vivo, mouse. The conditions noted are these: for accumulation in the retina: 100 mg/kg/day oral gavage, LC/MS. The text has this: The major risk to long term administration of hydroxychloroquine is retinal accumulation and subsequent ocular toxicity (Terahi et al, 2008. Semin Opthal. (3):201-208. PMID). We sought to evaluate the retinal deposition of HCQ and DHCQ. To do so, we performed mass spectrometric analysis of drug and metabolite content in retina, in operated side and non-operated side synovial tissue, and in plasma derived from mice treated with either HCQ or DHCQ. […] The indicated statistical comparisons between the levels measured in the indicated tissue from each group were compared by two-tailed T test (*P<0.05, **P<0.01, ***P<0.001).
Mice, dosing with HCQ and DHCQ, isolation of specific tissues, and mass spectrometry measurement of HCQ and DHCQ levels in tissue samples. C57BL6 (B6) mice (n=5 per group) were treated with HCQ (100 mg/kg/day) or DHCQ (100 mg/kg/day) by oral gavage for 3 months. At experimental termination (3 months) mice were sacrificed and eyes removed under dissecting microscope. Curved microdisecting scissors was used to cut along the cornea and sclera, remove and discard the lens and visceral leaving the neural retina with eye shell to be placed in PBS and homogenized followed by centrifugation. Synovium was microdissected from the operated knee or the contralateral non-operated knee, normalized by weight of tissue, and placed in HPLC grade water before being homogenized and centrifuged. Plasma was obtained by tail bleeding. Plasma and tissue samples were precipitated with acetonitrile and levels of HCQ, DHCQ, BDCQ were evaluated by liquid chromatography/mass spectrometry (LC/MS) at Climax Laboratories, Inc. (San Jose, Calif.). The LC/MS analysis was conducted by using Shimazu 10A HPLC system (Shimadzu Scientific Instruments, Inc., Pleasanton, Calif.) with ACE C18, 50×2.1 HPLC column and ABSciex API-4000 Mass Spectrometer (ABSciex Corp. Foster City, Calif.) with Electrospray Ionization (ESI) and negative Multiple Reaction Monitoring (MRM) Scan. A gradient elution was used in separating the test compound with a mobile phase A (0.1% Formic Acid in 5 mM of NH4AC) and B (0.1% Formic acid in acetonitrile).

Series [5] concerns ARPE-19 cells. How it is done:
The major serious risk to long term administration of hydroxychloroquine is retinal accumulation and subsequent ocular toxicity (Terahi et al, 2008. Semin Opthal. (3):201-208. PMID). The ocular deposition of HCQ, DHCQ, and BDCQ was evaluated by direct retinal cellular toxicity by incubating equivalent concentrations of these molecules with the retinal pigmented epithelial cell line ARPE-19. ARPE-19 is a human retinal pigment epithelial cell line with differentiated properties (Dunn et al., Exp Eye Res. 1996 62(2):155-69). ARPE-19 cells were grown to 90% confluence, and then exposed to 10 µg/ml of HCQ, DHCQ, BDCQ, or vehicle control for 24 hours, following which microscopic analysis and photomicroscopy was performed at 40× power.
As described above, ARPE-19 cells were grown to 90% confluence then exposed to 10 μg/ml HCQ, DHCQ, BDCQ, or vehicle control for 24 hours followed by quantitation of cell death by lactate dehydrogenase (LDH) release assay (Abcam).

Where two headings read alike, the source gives them in different places.

For the compound `CC(CCCNCCO)Nc1ccnc2cc(Cl)ccc12` (stereo not drawn) [DHCQ, desethylhydroxychloroquine], in series [1] (false discovery rate <0.1%), the “cytokines, DHCQ monotherapy vs vehicle control, atorvastatin alone, HCQ+atorvastatin and HCQ alone (SAM)” value was “reduced the levels of multiple inflammatory cytokines including IL-1b, MCP-1, IFNγ, TNF-alpha IL12p40, and IL-12p70”. Besides, the “levels of inflammatory cytokines in OA synovium vs vehicle control” value in series [1] is “lower”. Besides, the TNF production entry in series [2] is reported as “reduced PMBC TNF production”. For the same compound, in series [3], the “number of cells (nuclei) in the GCL vs vehicle” value is given as “no reduction in the number of cells in the GCL” and the “nuclear shrinkage in the ganglion cell layer (GCL)” value is “No increase in nuclear shrinkage in the GCL”. Moreover, the “accumulation in the retina” value in series [4] (3 months) was “only low-level accumulation in the retina”. The “level in surgical joint synovial tissue relative to retina” value in series [4] (100 mg/kg/day, 3 months) was “accumulated at higher levels in the surgical joint synovial tissue relative to the low levels measured in the retina”. Moreover, the “level in retina relative to plasma” value in series [4] (DHCQ in both HCQ and DHCQ dosed mice) is given as “much lower levels in plasma as compared to the retina”. For the same compound, the “ARPE-19 cellular toxicity by microscopy” value in series [5] (human, 24 h, 10 µg/ml) is “less ARPE-19 cellular toxicity”.

As for `CCN(CCO)CCCC(C)Nc1ccnc2cc(Cl)ccc12` (stereo not drawn) [HCQ, hydroxychloroquine], the “levels of inflammatory cytokines in OA synovium vs vehicle control” value in series [1] was “lower”. The TNF production entry in series [2] is listed as “reduced PMBC TNF production”. In series [3], the “number of cells (nuclei) in the GCL vs vehicle” value is recorded as “significantly lower” and the “nuclear shrinkage in the ganglion cell layer (GCL)” value was “increased nuclear shrinkage in the GCL”. In addition, in series [3] (P<0.05), the “retinal cell loss in GCL, HCQ compared to DHCQ” value is reported as “statistically increased retinal cell loss”. Also, in series [4] (3 months), the “accumulation in the retina” value is given as “accumulated a high levels in the retina”. Also, the “level in surgical joint synovial tissue relative to retina” value in series [4] (100 mg/kg/day, 3 months) is “accumulated at high levels in the retina relative to the low levels measured in the surgical joint synovial tissue”. Further, in series [4] (C57BL6, mouse, retina/plasma, oral, HCQ in HCQ dosed mice, 100 mg/kg/day, 3 months, read-out: level in retina/level in plasma), the Kp at 3 months was ~8.5. The “ARPE-19 cellular toxicity by microscopy” value in series [5] is “increased cytotoxicity and death”.
